From patent US20160108049A1 (TAKEDA Gmbh, priority 2011, published 2016) come the findings set out here.

In one test the target is T1, PDE4B1 (Homo sapiens, UniProt Q07343).
T1 construct: made in house; host or cells: SF21 insect cells (baculovirus; virus made in SF9 cells, pCR-Bac vector)
As to the kind of experiment: Inhibition of PDE4 activity (PDE4B1, SPA assay). The format is biochemical. The conditions noted are these: recombinant PDE4B1, 0.5 μM cAMP; read-out: PDE4B1 Inhibitory values measured as -logIC50 (converted). In outline:
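Baculovirus-expressed enzyme from SF21 cell 1000×g supernatant; substrate 0.5 μM [3H]cAMP in 20 mM Tris pH 7.4, 5 mM Mg2+, 0.1 mg/ml BSA, 10-20% conversion. 5 min preincubation at 37 °C, 15 min reaction, stopped by SPA beads with IBMX; IC50 by non-linear regression.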

Another test concerns the target T2, human PDE5 (Homo sapiens, UniProt O76074).
T2 construct: from tissue; host or cells: human platelets from fresh donor blood (platelet lysate)
As to the kind of experiment: Inhibition of PDE5 activity (platelet lysate, SPA assay). The format is biochemical. The note with it: 0.5 μM cGMP, read-out: PDE5 Inhibitory values measured as -logIC50 (converted). In outline: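 Human platelet lysate (10,000 g supernatant) served as PDE5 source, with 1 μM motapizone and 10 nM PDE2 inhibitor added, in Tris pH 7.4, 5 mM Mg2+, BSA. Substrate 0.5 μM [3H]cGMP, 10–20% conversion; 5 min preincubation then 15 min at 37 °C, stopped by SPA beads with IBMX. IC50 by non-linear regression.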

T1 sequence (Q07343 whole entry): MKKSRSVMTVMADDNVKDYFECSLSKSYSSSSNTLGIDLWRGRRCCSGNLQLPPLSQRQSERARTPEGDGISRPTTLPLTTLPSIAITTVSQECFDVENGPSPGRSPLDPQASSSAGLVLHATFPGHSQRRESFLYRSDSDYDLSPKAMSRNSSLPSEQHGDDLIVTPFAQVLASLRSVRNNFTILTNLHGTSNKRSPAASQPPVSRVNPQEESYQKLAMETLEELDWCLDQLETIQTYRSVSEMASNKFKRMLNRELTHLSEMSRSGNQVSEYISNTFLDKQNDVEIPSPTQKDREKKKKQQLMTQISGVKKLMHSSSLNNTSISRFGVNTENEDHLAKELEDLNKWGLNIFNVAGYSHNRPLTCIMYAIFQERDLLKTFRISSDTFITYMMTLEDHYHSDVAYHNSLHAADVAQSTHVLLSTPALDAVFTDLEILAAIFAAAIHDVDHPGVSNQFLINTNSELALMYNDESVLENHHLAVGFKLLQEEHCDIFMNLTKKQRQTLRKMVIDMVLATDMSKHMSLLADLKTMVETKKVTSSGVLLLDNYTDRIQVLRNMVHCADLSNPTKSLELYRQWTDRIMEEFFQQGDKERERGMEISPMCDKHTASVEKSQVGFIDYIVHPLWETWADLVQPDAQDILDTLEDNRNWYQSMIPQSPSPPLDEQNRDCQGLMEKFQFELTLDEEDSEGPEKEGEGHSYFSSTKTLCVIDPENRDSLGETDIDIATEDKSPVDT

As to `COc1ccc(C2=NN(C3CCN(C(=O)C[C@@H](Cc4ccccc4)NC(=O)c4c[nH]c5c(-c6c(OCC7CC7)ccc7c6OCO7)ncnc45)CC3)C(=O)[C@@H]3CCCC[C@H]23)cc1OC` [Example 77, 4-[5-(cyclopropylmethoxy)-1,3-benzodioxol-4-yl]-N-[(2R)-4-{4-[(4aS,8aR)-4-(3,4-dimethoxyphenyl)-1-oxo-4a,5,6,7,8,8a-hexahydrophthalazin-2(1H)-yl]piperidin-1-yl}-4-oxo-1-phenylbutan-2-yl]-5H-pyrrolo[3,2-d]pyrimidine-7-carboxamide], the IC50 on PDE4B1 and on human PDE5 was 1 to 10 nM throughout.

In the case of `COc1ccc(C2=NN(C3CCN(C(=O)[C@@H](Cc4ccc(Br)cc4)NC(=O)c4c[nH]c5c(-c6c(OCC7CC7)ccc7c6OCO7)ncnc45)CC3)C(=O)[C@@H]3CCCC[C@H]23)cc1OC` [Example 99, N-[(2R)-3-(4-bromophenyl)-1-{4-[(4aS,8aR)-4-(3,4-dimethoxyphenyl)-1-oxo-4a,5,6,7,8,8a-hexahydrophthalazin-2(1H)-yl]piperidin-1-yl}-1-oxopropan-2-yl]-4-[5-(cyclopropylmethoxy)-1,3-benzodioxol-4-yl]-5H-pyrrolo[3,2-d]pyrimidine-7-carboxamide], the IC50 at PDE4B1 and at human PDE5 was 1 to 10 nM in each case.

As for `COc1ccc(C2=NN(C3CCN(C(=O)[C@@H](Cc4ccc(C)cc4)NC(=O)c4c(C)[nH]c5c(-c6c(OCC7CC7)ccc7c6OCO7)ncnc45)CC3)C(=O)[C@@H]3CCCC[C@H]23)cc1OC` [Example 15, 4-[5-(cyclopropylmethoxy)-1,3-benzodioxol-4-yl]-N-[(2R)-1-{4-[(4aS,8aR)-4-(3,4-dimethoxyphenyl)-1-oxo-4a,5,6,7,8,8a-hexahydrophthalazin-2(1H)-yl]piperidin-1-yl}-3-(4-methylphenyl)-1-oxopropan-2-yl]-6-methyl-5H-pyrrolo[3,2-d]pyrimidine-7-carboxamide], the results for the IC50 on PDE4B1 and on human PDE5 were under 1 nM and 1 to 10 nM, respectively.

For `COc1ccc(C2=NN(C3CCN(C(=O)[C@@H](Cc4ccccc4)NC(=O)c4c[nH]c5c(-c6c(OCC7CC7)ccc7c6OCO7)ncnc45)CC3)C(=O)[C@H]3CCCC[C@@H]23)cc1OC` [Example 45, 4-[5-(cyclopropylmethoxy)-1,3-benzodioxol-4-yl]-N-[(2R)-1-{4-[(4aR,8aS)-4-(3,4-dimethoxyphenyl)-1-oxo-4a,5,6,7,8,8a-hexahydrophthalazin-2(1H)-yl]piperidin-1-yl}-1-oxo-3-phenylpropan-2-yl]-5H-pyrrolo[3,2-d]pyrimidine-7-carboxamide], the results for the IC50 on PDE4B1 and at human PDE5 were over 10 nM and 1 to 10 nM, respectively.

For the compound `COc1ccc(C2=NN(C3CCN(C(=O)[C@H](CCC(=O)N4CCCC4)NC(=O)c4c[nH]c5c(-c6c(OCC7CC7)ccc7c6OCO7)ncnc45)CC3)C(=O)[C@@H]3CCCC[C@H]23)cc1OC` [Example 102, 4-[5-(cyclopropylmethoxy)-1,3-benzodioxol-4-yl]-N-[(2S)-1-{4-[(4aS,8aR)-4-(3,4-dimethoxyphenyl)-1-oxo-4a,5,6,7,8,8a-hexahydrophthalazin-2(1H)-yl]piperidin-1-yl}-1,5-dioxo-5-(pyrrolidin-1-yl)pentan-2-yl]-5H-pyrrolo[3,2-d]pyrimidine-7-carboxamide], the IC50 at PDE4B1 and on human PDE5 was 1 to 10 nM in each case.

Take `COc1ccc(C2=NN(C3CCN(C(=O)[C@H](Cc4cccnc4)NC(=O)c4c[nH]c5c(-c6c(OCC7CC7)ccc7c6OCO7)ncnc45)CC3)C(=O)C3(CCCC3)C2)cc1OC` [Example 125, 4-[5-(cyclopropylmethoxy)-1,3-benzodioxol-4-yl]-N-[(2S)-1-{4-[9-(3,4-dimethoxyphenyl)-6-oxo-7,8-diazaspiro[4.5]dec-8-en-7-yl]piperidin-1-yl}-1-oxo-3-(pyridin-3-yl)propan-2-yl]-5H-pyrrolo[3,2-d]pyrimidine-7-carboxamide]: the IC50 at PDE4B1 and on human PDE5 was 1 to 10 nM each time.

On to `COc1cc(OCC2CC2)c(-c2ncnc3c(C(=O)N[C@H](Cc4ccccc4)C(=O)N4CCC(N5N=C(c6ccc(OC)c(OC)c6)[C@H]6CCCC[C@H]6C5=O)CC4)c[nH]c23)cc1F` [Example 23, 4-[2-(cyclopropylmethoxy)-5-fluoro-4-methoxyphenyl]-N-[(2R)-1-{4-[(4aS,8aR)-4-(3,4-dimethoxyphenyl)-1-oxo-4a,5,6,7,8,8a-hexahydrophthalazin-2(1H)-yl]piperidin-1-yl}-1-oxo-3-phenylpropan-2-yl]-5H-pyrrolo[3,2-d]pyrimidine-7-carboxamide], for which the IC50 on PDE4B1 and at human PDE5 was 1 to 10 nM in each case.

Regarding `COc1ccc(C2=NN(C3CCN(C(=O)[C@@H](CN(C)C)NC(=O)c4c[nH]c5c(-c6c(OCC7CC7)ccc7c6OCO7)ncnc45)CC3)C(=O)[C@@H]3CCCC[C@H]23)cc1OC` [Example 96, 4-[5-(cyclopropylmethoxy)-1,3-benzodioxol-4-yl]-N-[(2R)-1-{4-[(4aS,8aR)-4-(3,4-dimethoxyphenyl)-1-oxo-4a,5,6,7,8,8a-hexahydrophthalazin-2(1H)-yl]piperidin-1-yl}-3-(dimethylamino)-1-oxopropan-2-yl]-5H-pyrrolo[3,2-d]pyrimidine-7-carboxamide], the IC50 at PDE4B1 and at human PDE5 was 1 to 10 nM in each case.

Take `COc1ccc(C2=NN(C3CCN(C(=O)[C@@H](C)NC(=O)c4c[nH]c5c(-c6c(OCC7CC7)ccc7c6OCO7)ncnc45)CC3)C(=O)[C@@H]3CCCC[C@H]23)cc1OC` [Example 62, 4-[5-(cyclopropylmethoxy)-1,3-benzodioxol-4-yl]-N-[(2R)-1-{4-[(4aS,8aR)-4-(3,4-dimethoxyphenyl)-1-oxo-4a,5,6,7,8,8a-hexahydrophthalazin-2(1H)-yl]piperidin-1-yl}-1-oxopropan-2-yl]-5H-pyrrolo[3,2-d]pyrimidine-7-carboxamide]: the IC50 is under 1 nM on PDE4B1 and 1 to 10 nM on human PDE5.

Consider `COc1ccc(C2=NN(C3CCN(C(=O)[C@@H](Cc4ccccc4)NC(=O)c4c[nH]c5c(-c6c(OCC7CC7)ccc7c6OCO7)ncnc45)CC3)C(=O)C(C)(C)C2)cc1OC` [Example 67, 4-[5-(cyclopropylmethoxy)-1,3-benzodioxol-4-yl]-N-[(2R)-1-{4-[3-(3,4-dimethoxyphenyl)-5,5-dimethyl-6-oxo-5,6-dihydropyridazin-1(4H)-yl]piperidin-1-yl}-1-oxo-3-phenylpropan-2-yl]-5H-pyrrolo[3,2-d]pyrimidine-7-carboxamide], for which the figures for the IC50 on PDE4B1 and at human PDE5 were under 1 nM and 1 to 10 nM, respectively.

Consider `COc1ccc(C2=NN(C3CCN(C(=O)[C@@H](Cc4ccc(Cl)cc4)NC(=O)c4c[nH]c5c(-c6c(OCC7CC7)ccc7c6OCO7)ncnc45)CC3)C(=O)[C@@H]3CCCC[C@H]23)cc1OC` [Example 27, N-[(2R)-3-(4-chlorophenyl)-1-{4-[(4aS,8aR)-4-(3,4-dimethoxyphenyl)-1-oxo-4a,5,6,7,8,8a-hexahydrophthalazin-2(1H)-yl]piperidin-1-yl}-1-oxopropan-2-yl]-4-[5-(cyclopropylmethoxy)-1,3-benzodioxol-4-yl]-5H-pyrrolo[3,2-d]pyrimidine-7-carboxamide], for which the figures for the IC50 at PDE4B1 and on human PDE5 were 1 to 10 nM and under 1 nM, respectively.

As for `COc1ccc(C2=NN(C3CCN(C(=O)[C@H](Cc4cccc(C)c4)NC(=O)c4c(C)[nH]c5c(-c6c(OCC7CC7)ccc7c6OCO7)ncnc45)CC3)C(=O)[C@@H]3CCCC[C@H]23)cc1OC` [Example 4, 4-[5-(cyclopropylmethoxy)-1,3-benzodioxol-4-yl]-N-[(2S)-1-{4-[(4aS,8aR)-4-(3,4-dimethoxyphenyl)-1-oxo-4a,5,6,7,8,8a-hexahydrophthalazin-2(1H)-yl]piperidin-1-yl}-3-(3-methylphenyl)-1-oxopropan-2-yl]-6-methyl-5H-pyrrolo[3,2-d]pyrimidine-7-carboxamide], the IC50 on PDE4B1 and on human PDE5 was 1 to 10 nM throughout.

For `COc1ccc(C2=NN(C3CCN(C(=O)[C@H](Cc4ccccc4)NC(=O)c4c[nH]c5c(-c6c(OCC7CC7)ccc7c6OCO7)ncnc45)CC3)C(=O)[C@@H]3CCCC[C@H]23)cc1OC` [Example 36, 4-[5-(cyclopropylmethoxy)-1,3-benzodioxol-4-yl]-N-[(2S)-1-{4-[(4aS,8aR)-4-(3,4-dimethoxyphenyl)-1-oxo-4a,5,6,7,8,8a-hexahydrophthalazin-2(1H)-yl]piperidin-1-yl}-1-oxo-3-phenylpropan-2-yl]-5H-pyrrolo[3,2-d]pyrimidine-7-carboxamide], the IC50 on PDE4B1 and at human PDE5 was 1 to 10 nM each time.

Turning to `COc1ccc(C2=NN(C3CCN(C(=O)[C@H](NC(=O)c4c(C)[nH]c5c(-c6c(OCC7CC7)ccc7c6OCO7)ncnc45)C(C)C)CC3)C(=O)[C@@H]3CCCC[C@H]23)cc1OC` [Example 120, 4-[5-(cyclopropylmethoxy)-1,3-benzodioxol-4-yl]-N-[(2R)-1-{4-[(4aS,8aR)-4-(3,4-dimethoxyphenyl)-1-oxo-4a,5,6,7,8,8a-hexahydrophthalazin-2(1H)-yl]piperidin-1-yl}-3-methyl-1-oxobutan-2-yl]-6-methyl-5H-pyrrolo[3,2-d]pyrimidine-7-carboxamide], the IC50 at PDE4B1 and at human PDE5 was 1 to 10 nM throughout.
